{
  "source": "patent US20220401450A1",
  "about": "“PEDIATRIC FORMULATIONS FOR TREATMENT OF CANCER” (CELGENE CORPORATION, priority 2019, published 2022)",
  "note": "Peptide text beside a SMILES is read from it.",
  "data": [
    {"experiment": "Accelerated stability study of blends: chemical compatibility of sweeteners with Compound 1B (assay potency)", "assay_type": "physicochemical", "description": "The chemical compatibility between these excipients and Compound 1B was evaluated through an accelerated stability study. The formulation samples were prepared as blends, then stored at 25° C./60% RH and 40° C./75% RH for up to four weeks.\nChemical stability of the blends was evaluated both in the presence and absence of high-intensity sweeteners, and the results are summarized in Table 2.", "values": [
      {"smiles": "COC(=O)[C@H](Cc1ccccc1)NC(=O)[C@@H](N)CC(=O)O", "note": "[Aspartame] (H-Asp-Phe-OMe)", "Chemical stability (compatibility with Compound 1B)": "Compatible"},
      {"smiles": "CC1=CC(=O)[N-]S(=O)(=O)O1.[K+]", "note": "[Acesulfame-K]", "Chemical stability (compatibility with Compound 1B)": "Compatible"},
      {"smiles": "OC[C@H]1O[C@H](O[C@]2(CCl)O[C@H](CCl)[C@@H](O)[C@@H]2O)[C@H](O)[C@@H](O)[C@H]1Cl", "note": "[Sucralose]", "Chemical stability (compatibility with Compound 1B)": "Compatible"},
      {"smiles": "O=C1NS(=O)(=O)c2ccccc21", "note": "[Saccharin]", "Chemical stability (compatibility with Compound 1B)": "Incompatible"}
    ]}
  ]
}
